Experimental findings from patent US11674967B2, “Method of identifying potential inhibitors of APO TNFα trimers” (UCB BIOPHARMA SRL, priority 2015, dated 2023) are described below.

In the experiment the target is T1, human TNFα trimer (Homo sapiens, UniProt P01375).
T1 construct: His6Smt-tag (N, cleaved yes); made in house; host or cells: E. coli (vector pEMB54)
T1 sequence (P01375 with tags, fused parts or gaps): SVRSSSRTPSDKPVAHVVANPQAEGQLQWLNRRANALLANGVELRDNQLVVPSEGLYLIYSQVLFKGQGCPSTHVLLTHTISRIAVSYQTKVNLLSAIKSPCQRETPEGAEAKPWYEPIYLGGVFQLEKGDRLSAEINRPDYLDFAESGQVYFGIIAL
In words: RMSD of crystal structure of compound-bound TNFα trimer to Reference Structure Compound 34. Conditions: Cα atoms of β-sheet residues, all three subunits, PyMOL. As to the method: Cells were pre-cultured at 37° C. in rich media, induced with the addition of 0.1% arabinose and allowed to express overnight at 25° C. in vector pEMB54. This vector introduces a cleavable N-terminal His6Smt-tag. The cells were lysed and purified by Ni-NTA chelate chromatography. The fusion protein was eluted with buffer containing imidazole and cleaved by the addition of protease. The final cleaved TNFα protein was purified by a subtractive Ni chelate chromatography step to remove the fusion tag and further purified by size exclusion chromatography to remove the remaining impurities. The final TNFα product was typically concentrated to 20.0 mg/ml and flash frozen in liquid nitrogen.
Purified human TNF[…] (20.0 mg/ml, VC 2043) was diluted to 4-7 mg/ml in 10 mM HEPES pH 7.5, 150 mM NaCl buffer followed by overnight incubation at 4° C. with 0.3-0.5 mM compound (1-2 molar excess). The TNF[…] compound complexes were crystallized by sitting drop vapor diffusion by mixing 0.5 μl of complex with 0.5 μl of 21.44% PEG 3350, 100 mM Tris, pH 9.0 (UCB1474433); or 22.0% PEG 3350, 100 mM glycine, 100 mM Tris, pH 8.5 (UCB1480595); or 25.6% PEG 3350, 100 mM Tris, pH 8.3, 3% xylitol (UCB5143079) or other formulation with varying precipitant concentration or additives over 100 μl of the same crystallization solution. Other formulations for other compounds include a range of PEG 3350 of 8-28%. Other PEG-like additives include PEG 1000 (8-18%) or PEG 2000 (10-13%). Other additives include MPD (5-13%) or 200 mM NaCl. Other buffers include 100 mM Hepes (pH 7-8), 100 mM Tris or bis-Tris (pH 6.7-9.0). Other non-PEG 3350 crystallization solutions consist of PEG 2000 (14-19%), 100 mM Hepes, pH 8, 25 mM arginine; or 17% PEG 10000, 200 mM ammonium acetate, 100 mM bis-Tris, pH 5.5; or 30% PEG 2000 MME, 100 mM sodium acetate, 100 mM Mes, pH 6.5.
Crystals were briefly soaked in ethylene glycol and/or vitrified directly in liquid nitrogen for data collection.
X-ray diffraction data were collected from a synchrotron source at a wavelength, most frequently, of 0.976484 Å and recorded on CCD detector. […] The structure of the human TNF[…] (VC 2043) complexed with compound was solved by molecular replacement using Phaser with input model of 1TNF. […] Iterative manual model building using Coot (Emsley and Cowtan, 2004) and Refmac (Murshudov et al., 1997) continued until R and Rfree converged. […] The resolution of the structures was most frequently around 2.15 Å.
Root mean squared deviation (RMSD) calculations were carried out to ascertain the distance of each of the crystal structures of distorted TNFα trimer to a reference structure.
RMSD calculations were done using the program PyMOL (www.pymol.org). In this example version 1.7. was used. The cmd.rms PyMOL command was used with defined pairs of atoms. The atoms used were the backbone Ca's of certain residues within the β-strands of TNFα. The residue numbers used are shown below:
These residue numbers are those within the published structure of TNFα with PDB code 1A8M and within the distorted TNFα trimer structures of this invention. The residue numbers are also according to the sequence of SEQ ID NO:36. The residues in each of the three chains with the TNFα structures, (labelled A, B, and C according to our instructions) were used.
The command cmd.rms was used with the following arguments:
rms=cmd.rms(“(moving)”, “(target)”, matchmaker=4, quiet=0, cycles=0)
where “(moving)” is the selection of atoms in a given TNFα structure and “(target)” is the selection of equivalent atoms within the reference structure.
The RMSD was calculated for each structure against all others. The “representative structure” or “Reference Structure” was chosen to be the one with the lowest sum RMSD to all others—the structure “Compound 34” or “Compound34.pdb”.
Reference Structure (Compound 34) and Query Structure (Compound 64) were overlaid (see FIG. 17 with Reference Structure emboldened) by: • 1. […]
With `Cc1ccc(C)c(Cn2c(C(O)c3ccc(N(C)C)cc3)nc3ccccc32)c1` (stereo not drawn) [Compound 4], the “RMSD (Å) with Compound 34” value was found to be 0.21 Å.
Under `Cc1ccc(C)c(Cn2c(Cn3cc(-c4cccc(O)c4)nn3)nc3ccccc32)c1` [Compound 6] stands 0.21 Å.
For `Cc1ccc(C)c(Cn2c(COCc3ccncc3)nc3ccccc32)c1` [Compound 7], the “RMSD (Å) with Compound 34” value is 0.25 Å.
As for `Clc1ccc(Cl)c(Cn2c(Cc3ccncc3)nc3ccccc32)c1` [Compound 8], the figure is 0.30 Å; as for `Cc1ccc(C)c(Nn2c(C(O)c3ccncc3)nc3ccccc32)c1` (stereo not drawn) [Compound 9], 0.28 Å.
As for `Cc1ccc(C)c(Cn2c(C(N)c3ccccc3)nc3ccccc32)c1` (stereo not drawn) [Compound 10], the figure is 0.25 Å; as for `Cc1ccc(C)c(Cn2c(C(O)c3ccncc3)nc3cc(-c4ccc(N5CCNCC5)cc4)ccc32)c1` (stereo not drawn) [Compound 11], 0.30 Å; as for `Cc1ccc(C)c(Cn2c(C(O)c3ccncc3)nc3ccc(-c4cn[nH]c4)cc32)c1` (stereo not drawn) [Compound 12], 0.27 Å.
In the case of `COC(=O)CCc1ccc2nc(C(O)c3ccncc3)n(Cc3cc(C)ccc3C)c2c1` (stereo not drawn) [Compound 13], the “RMSD (Å) with Compound 34” value came to 0.36 Å.
`Cc1ccc(C)c(Cn2c(CO)nc3ccc(-c4ccc(N(C)C)nc4)cc32)c1` [Compound 14]: the “RMSD (Å) with Compound 34” value is 0.30 Å.
Take `Cc1ccc(C)c(Cn2c(COc3ccc4ccncc4c3)nc3ccccc32)c1` [Compound 16]: the “RMSD (Å) with Compound 34” value came out at 0.47 Å.
In the case of `Cc1ccc(C)c(Cn2c(COCc3ccccc3[N+](=O)[O-])nc3ccccc32)c1` [Compound 17], the “RMSD (Å) with Compound 34” value came to 0.44 Å.
Under `Cc1ccc(C)c(Cn2c(Cc3ccncc3)nc3ccc(-c4ccncc4)cc32)c1` [Compound 18] stands 0.31 Å; under `Cc1ccc(C)c(Cn2c(Cc3ccncc3)nc3ccc(-c4ccc(CN5CCCC5)cc4)cc32)c1` [Compound 19], 0.21 Å.
As for `CNC(=O)c1ccc(OCc2nc3ccc(-c4ccncc4)cc3n2Cc2cc(Cl)ccc2Cl)cc1` [Compound 20], the figure is 0.22 Å; as for `NC(=O)c1ccc(OCc2nc3ccc(-c4cc[n+]([O-])cc4)cc3n2Cc2cc(Cl)ccc2Cl)cc1` [Compound 21], 0.22 Å.
Take `Cc1nc(Cn2c(COc3ccc(C(N)=O)cc3)nc3ccc(-c4cc[n+]([O-])cc4)cc32)cs1` [Compound 22]: the “RMSD (Å) with Compound 34” value worked out at 0.23 Å.
For `Cc1nc(Cn2c(COc3ccc(C(N)=O)cc3)nc3ccc(-c4ccncn4)cc32)cs1` [Compound 23], the “RMSD (Å) with Compound 34” value is 0.24 Å.
As for `Cc1nc2ccc(-c3cnn(C)c3)cn2c1Cc1cc(Cl)ccc1Cl` [Compound 24], the figure is 0.28 Å; as for `COc1ccc(OCc2nc3ccc(Br)cc3n2Cc2nc(C)sc2Cl)cn1` [Compound 25], 0.34 Å; as for `Cc1nc2cnc(-c3ccc(=O)[nH]c3)cn2c1Cc1cc(Cl)ccc1Cl` [Compound 26], 0.38 Å.
As for `N#Cc1ccc2nc(COc3ccc(C(N)=O)nc3)n(Cc3ccccc3OC(F)F)c2c1` [Compound 27], the figure is 0.24 Å; as for `CS(=O)(=O)c1cccc(OCc2nc3ccc(C#N)cc3n2Cc2cc(Cl)ccc2Cl)c1` [Compound 28], 0.29 Å.
Consider `N#Cc1ccc2nc(COc3cccc(N4CCCC4=O)c3)n(Cc3cc(Cl)ccc3Cl)c2c1` [Compound 29], for which the “RMSD (Å) with Compound 34” value was determined as 0.24 Å.
With `N#Cc1ccc2nc(Cc3ccc(NC(N)=O)cc3)n(Cc3ccccc3OC(F)F)c2c1` [Compound 30], the “RMSD (Å) with Compound 34” value worked out at 0.23 Å.
`N#Cc1ccc2nc(Cc3csc(N4CCNC4=O)n3)n(Cc3ccccc3OC(F)F)c2c1` [Compound 31]: the “RMSD (Å) with Compound 34” value is listed as 0.24 Å.
As for `Cc1nc2ccc(-c3ccc(N4CCNCC4)nc3)cc2n1Cc1ccccc1OC(F)F` [Compound 32], the figure is 0.24 Å.
As for `COCc1nc2ccc(-c3ccc(N4CCN(C(C)=O)CC4)nc3)cc2n1Cc1ccccc1OC(F)F` [Compound 33], the figure is 0.14 Å; as for `N#Cc1ccc2nc(COc3cccc(N4CCC(O)C4=O)c3)n(Cc3ccccc3OC(F)F)c2c1` (stereo not drawn) [Compound 35], 0.16 Å; as for `N#Cc1ccc2nc(COc3cccc(N4CC(O)CC4=O)c3)n(Cc3ccccc3OC(F)F)c2c1` (stereo not drawn) [Compound 36], 0.21 Å.
As for `N#Cc1ccc2nc(COc3cccc(N4CC(O)CC4=O)c3)n(Cc3ccccc3OC(F)F)c2c1` (stereo not drawn) [Compound 37], the figure is 0.22 Å; as for `COCc1nc2ccc(-c3ccc(N4CCNC(=O)C4)nc3)cc2n1Cc1ccccc1OC(F)F` [Compound 38], 0.17 Å.
For `N#Cc1ccc2nc(Cn3nnc(N4CCOCC4)n3)n(Cc3ccccc3OC(F)F)c2c1` [Compound 40], the “RMSD (Å) with Compound 34” value amounted to 0.17 Å.
On to `Cc1cc(OCc2nc3ccc(C#N)cc3n2C(C)c2ccccc2)no1` (stereo not drawn) [Compound 41], for which the “RMSD (Å) with Compound 34” value was 0.20 Å.
With `CC(c1ccccc1)n1c(COc2cccc(N3CCCC3=O)c2)nc2ccc(C#N)cc21` (stereo not drawn) [Compound 42], the “RMSD (Å) with Compound 34” value amounted to 0.21 Å.
`COCCNc1ncc(-c2ccc3nc(C)n(Cc4ccccc4OC(F)F)c3c2)cn1` [Compound 44]: the “RMSD (Å) with Compound 34” value is reported as 0.25 Å.
As for `COc1ccc(-c2ccc3nc(Cc4ccc(S(C)(=O)=O)cc4)n(C(C)c4ccccc4)c3c2)cn1` (stereo not drawn) [Compound 45], the figure is 0.24 Å; as for `Cc1nc2ccc(-c3cnc(N4CCC(C(=O)O)CC4)nc3)cn2c1Cc1ccccc1OC(F)F` [Compound 46], 0.27 Å; as for `Cc1nc2ccc(-c3ccc(N4CCNCC4)nc3)cn2c1C(O)c1ccccc1OC(F)F` (stereo not drawn) [Compound 47], 0.26 Å.
As for `COc1ccc(-c2ccc3nc4c(n3c2)C(c2ccccc2)OCC4)cn1` (stereo not drawn) [Compound 48], the figure is 0.30 Å; as for `Cc1ccc(C)c(C2CCc3nc4ccc(Br)cc4n32)c1` (stereo not drawn) [Compound 49], 0.28 Å.
Under `CC(c1ccccc1OC(F)F)n1c(COc2cccc(N3CCCC3=O)c2)nc2ccc(Br)cc21` (stereo not drawn) [Compound 50] stands 0.23 Å; under `FC(F)Oc1ccccc1C1NCCc2nc3ccc(-c4cnc(N5CCOCC5)nc4)cn3c21` (stereo not drawn) [Compound 51], 0.34 Å; under `FC(F)Oc1ccccc1C1CCc2nc3ccc(Br)cc3n21` (stereo not drawn) [Compound 52], 0.26 Å.
For `CC(c1ccccc1OC(F)F)n1c(COc2cccc(N3CCCC3=O)c2)nc2ccc(Br)cc21` (stereo not drawn) [Compound 53], the “RMSD (Å) with Compound 34” value is recorded as 0.24 Å.
Under `Cc1cc2nc(C)c(Cc3ccccc3OC(F)F)n2cc1-c1cnc(NCC2(C(=O)O)CC2)nc1` [Compound 54] stands 0.32 Å.
With `Cc1nc2ccc(-c3cnc(N4CCNC(=O)CC4C)nc3)cn2c1Cc1ccccc1OC(F)F` (stereo not drawn) [Compound 55], the “RMSD (Å) with Compound 34” value is on record as 0.26 Å.
Under `Cc1nc2ccc(-c3cnc(N4CCNC(=O)C4)nc3)cn2c1[C@@H](O)c1ccccc1OC(F)F` [Compound 56] stands 0.24 Å.
